Laboratory results published in PMC8864869, “A short peptide derived from pigment epithelial-derived factor exhibits an angioinhibitory effect” (BMC Ophthalmology, 2022).

Legend:
[1] = system: RPMI8226 cells; experiment: Annexin V-FITC/PI double-staining apoptosis assay in RPMI8226 cells; assay type: cell-based, human; conditions: 10 ng/ml VEGF + 25 μM peptide, 24 h, serum-free; early + late apoptosis; mean ± SD, three independent experiments
Experimental: Cell apoptosis was examined using a TACS annexin V-FITC kit according to the manufacturer’s instructions for in situ staining. The cell numbers were monitored by counterstaining with Hoechst 33342. Afterward, apoptosis was examined and photographed by a Zeiss epifluorescence microscope (× 100, 10 fields/sample). Images were recorded on Zeiss software.
Fig. 2 The 34-mer and 7-mer induce apoptosis of RPMI8226 cells. a Fluorescence microscopy of annexin V-FITC/PI double staining. Treatment of RPMI8226 cells was as described in Fig. 1. Apoptosis was determined by annexin V-FITC staining (green dots) and double stained with propidium iodide (red dots). A representative of three independent experiments is shown. b The percentage of apoptotic cells was quantified by dividing the number of annexin V-positive cells by the total number of cells counted by phase-contrast light microscopy. Control peptide indicates cells were treated with the 5-mer. Histograms show means ± SD. ^aP < 0.005 versus peptide solvent-treated cells. ^bP < 0.0002 versus VEGF-treated cells. ^cP < 0.001 versus 34-mer-treated cells
(§1) Fig. 3 The 7-mer induces JNK signaling to trigger RPMI8226 cell apoptosis. 3 × 10^5 cells were serum starved for 24 h and then exposed to 10 ng/ml VEGF and 25 μM 7-mer for the indicated time periods. a Western blotting was performed to detect the active phosphorylated forms of JNK (p-JNK) and p38 MAPK (p-p38), shown in the upper panels. Antibodies were then stripped and the blots were re-incubated with anti-JNK and anti-p38 MAPK antibodies (lower panels), respectively, to detect the levels of total JNK and p38 MAPK. b Densitometric analyses from three independent experiments are shown. c Cell were pretreated with 10 μM SP600125 or SB203580 for 10 min and then treated as described above for 24 h and apoptosis was quantified using the annexin V-FITC apoptosis detection kit. *P < 0.0001 versus 7-mer-treated cells

[2] = system: p38 MAPK; experiment: Western blot of phosphorylated p38 MAPK in RPMI8226 cells; assay type: cell-based, human; conditions: 10 ng/ml VEGF + 25 μM 7-mer, time course
From the text: Cell lysis and SDS–PAGE were as described previously. Antibodies used in this study were for active p38 MAPK and active JNK (Promega, Madison, WI), p38 MAPK/SAPK2, JNK (Upstate Biotechnology, Lake Placid, NY), p53 (Chemicon, Temecula, CA), bax, p21, cleaved caspase-3 and β-actin (Abcam Ltd., Cambridge, UK). Proteins of interest were detected using the appropriate IgG-horseradish peroxidase-linked secondary antibody (Santa Cruz Biotechnology) and enhanced chemiluminescence reagent (Amersham, Arlington Heights, IL). X-ray films were scanned on a model GS-700 Imaging Densitometer (Bio-Rad, Hercules, CA) and analyzed with Labworks 4.0 software. For quantification, blots from at least three independent experiments were used.
as §1, with “3 × 10^5 cells were serum starved for 24 h and then exposed to 10 ng/ml VEGF and 25 μM 7-mer for the indicated time periods. a Western blotting was performed to detect the active phosphorylated forms of JNK (p-JNK) and p38 MAPK (p-p38), shown in the upper panels.” left out

[3] = system: HUVECs; experiment: Endothelial cell capillary-like tube formation assay; assay type: cell-based, human; conditions: 20 ng/ml VEGF, 10 μM 7-mer, matrigel, 0.5% FBS, 6 h
Experimental: Cells were grown in Medium 200 with LSGS (supplement contains 1.9% fetal bovine serum, 3 ng/ml bFGF, 10 μg/ml heparin, 1 μg/ml hydrocortisone, and 10 ng/ml EGF). Culture plates were coated with 2% gelatin. Cells (passages 4–8) were cultured at 37 °C in a humidified atmosphere of 5% CO2. For peptide treatment, HUVECs were cultured in low serum (0.5% FBS) medium containing 20 ng/ml VEGF and 7-mer peptide (20 μM, unless otherwise specified).
Growth factor-reduced matrigel was pipetted into pre-chilled 24-well plates (150 μl matrigel per well) and polymerized for 45 min at 37 °C. HUVECs (4 × 10^4 per well) in low serum (0.5% FBS) medium were treated with 20 ng/ml VEGF and 7-mer (10 μM) in matrigel coated plates. After 6 h of incubation, tubular structures were photographed. Images were captured using a Cannon camera on a Zeiss inverted microscope with magnification × 40.
The experiment was repeated three times. Magnification is × 40. b The 7-mer induces HUVEC apoptosis in the presence of VEGF. Cell apoptosis was analyzed using the Annexin V-FITC Apoptosis Detection kit according to the in situ staining protocol after treatment for 16 h. Double staining with an annexin V-FITC and the fluorescent dye Hoechst 33342 was used to visualize the apoptotic cells (green) and nuclei (blue), respectively. […] The percentages of apoptotic cells were quantified. ^aP < 0.005 versus VEGF-treated cells

[4] = system: VEGF-induced corneal neovascularization; experiment: Mouse corneal micropocket assay; assay type: in vivo; conditions: C57BL/6 mice, pellet with 200 ng VEGF + 2.5 μg 7-mer, day 7
Experimental: The assay was performed according to procedures described previously. Briefly, corneal micropockets were created in 6-week-old C57BL/6 mice with the needle of 1-ml injector. A micropellet of sucrose aluminum sulfate and hydron polymer containing 200 ng VEGF, with or without 2.5 μg 7-mer peptide, was delivered into each corneal pocket. Eyes were photographed by a slit-lamp biomicroscope on day 7 after micropellet implantation. Ingrowth of the blood vessels into the avascular cornea, towards the pellet, was scored as a positive response. The results are reported as the fraction of positive corneas of the total implanted.
Fig. 6 The effect of the 7-mer on VEGF-induced microvessel sprouting of aortic ring and corneal neovascularization. a Rat aortic ring assay. Photomicrographs of aortic ring explants after treatment for 5 days (magnification × 40). Sprouting was evaluated on a scale from 0 (no sprouts) to 3 (profuse sprouting). There was no sprouting of vessels from ex vivo aortic rings embedded in Matrigel without LSGS or VEGF. b The 7-mer inhibits VEGF-induced corneal angiogenesis in C57BL/6 mice. Representative corneas and final scoring determining the number of positive corneas per total implantations. […]

“7-mer: PEDF Asp64-Ser70, N-acetylated, C-amidated (Ac-DLYRVRS-NH2; UniProt P36955 64-70, looked up, fragment)” was tested, and the “apoptotic (annexin V+) RPMI8226 cells” value [1] was 38.6 ± 2.1%, the “p38 MAPK phosphorylation” value [2] was “no significant effect on p38 MAPK phosphorylation” and the “VEGF-stimulated tube-like network of HUVECs” value [3] was “marked decrease of the VEGF-stimulated tube-like network”. The “VEGF-induced neovessels in the corneas” value [4] was “prevented by the 7-mer” and the “Positive Corneas /Total” value ([4]; vehicle 10/12) was 0/8.
